Ten molecules from PubChem BioAssay (NCI) can be followed below.

Molecules are shown by their SMILES.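 The compound was tested at five concentrations on cells cultured in 96-well plates, with a 48-hour exposure period. Here, GI50 denotes the concentration required for 50% inhibition of growth. Definition used: TGI = concentration required for complete inhibition of growth.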

Holding throughout (test): growth of human tumour cells (NCI), 48 h
Experiment [1] has as its system A498 renal.
Experiment [2] deals with HCC-2998 colon.
Experiment [3] relates to HS 578T breast.
For experiment [4], the system named is LOX IMVI melanoma.
Experiment [5] concerns MALME-3M melanoma.
Experiment [6] relates to NCI-H460 lung.
For experiment [7], the system named is OVCAR-8 ovarian.
Experiment [8] concerns SN12C renal.
Experiment [9] concerns SNB-19 CNS.
The test system of experiment [10] is SK-OV-3 ovarian.

With `O=C(Nc1ccc(-n2cc(-c3ccncc3)c(-c3ccc(O)c(Cl)c3)n2)cc1)c1ccc(Cl)c(Cl)c1`, the GI50 in [1] was more than 32.5 µM; in experiment [2], 2.03 µM; in experiment [3] it was 0.791 µM; in [4], 0.779 µM; in experiment [5] it was 2.47 µM; in experiment [6], 1.58 µM. Further, the figures for the GI50 in experiment [7], in [8] and in experiment [9] were 1.74 µM, 2.95 µM and 2.67 µM, respectively. Also, the TGI is more than 32.5 µM in [1]; more than 32.5 µM in experiment [2]; more than 32.5 µM in experiment [3]; 2.88 µM in [4]; more than 32.5 µM in experiment [5]; more than 32.5 µM in experiment [6]. Also, the TGI in experiment [7], in [8] and in experiment [9] was more than 32.5 µM throughout.
As for `CCN(CC)CCSc1nc2c([N+](=O)[O-])cccc2[nH]1`, the TGI in [2], in experiment [4], in [7], in [10] and in experiment [8] was more than 100 µM in each case.
As for `CCCCCCCCCCCCCCCc1ccc(C(=O)C[n+]2ccccc2)cc1`, the GI50 in experiment [1] was 1.1 µM; in [2], 1.27 µM; in experiment [3] it was 1.75 µM; in experiment [4], 0.348 µM; in experiment [5], 1.75 µM; in experiment [6], 0.546 µM. Further, the GI50 in experiment [7] was 1.22 µM; in experiment [10], 1.71 µM; in [8], 0.756 µM. For the same molecule, the TGI in experiment [1] came out at 8.33 µM; in [2] it was 2.55 µM; in experiment [3], 4.25 µM; in experiment [4] it was 1.19 µM; in experiment [5], 4.95 µM; in experiment [6], 1.78 µM. For the same molecule, the figures for the TGI in experiment [7], in experiment [10] and in experiment [8] were 2.55 µM, 3.34 µM and 2.13 µM, respectively.
For `CNC1=C(C)C(=O)C2=C(C1=O)C(COC(N)=O)C1(OC)C3NC3CN21` (stereo unspecified), the TGI in experiment [1] came out at 2.35 µM; in experiment [2], 1.82 µM; in experiment [3], 30.5 µM; in experiment [4], 1.41 µM; in experiment [5] it was 3.61 µM; in experiment [6] it was 0.251 µM. Further, the TGI in experiment [7] was determined as 11 µM; in experiment [10], 36.5 µM.
For the molecule `N=C(N)c1ccc(-c2ccc(-c3ccccc3)o2)cc1`, the GI50 was 2.85 µM in [1]; 1.51 µM in experiment [2]; 2.58 µM in experiment [3]; 1.55 µM in experiment [5]; 1.93 µM in experiment [6]; 2.89 µM in experiment [10]. For the same molecule, the GI50 in experiment [8] was 2.72 µM; in experiment [9], 2.54 µM. The TGI was found to be 9.46 µM in experiment [1]; 3.15 µM in experiment [2]; 7.04 µM in [3]; 3.12 µM in experiment [5]; 3.65 µM in [6]; 10.2 µM in [10]. Moreover, the results for the TGI in experiment [8] and in experiment [9] were 7.61 µM and 6.83 µM, respectively.
Regarding `CC(=O)Nc1ccc2c(c1)C(=Nc1ccc(C(=O)O)cc1)c1ccccc1-2`, the TGI in [1], in experiment [2], in [3], in experiment [4], in experiment [5] and in experiment [6] was more than 100 µM in each case. Further, the TGI in experiment [7], in experiment [10], in experiment [8] and in experiment [9] was more than 100 µM in each case.
On to `Nc1cccc2cc(S(=O)(=O)Nc3ccc(C(=O)O)cc3)ccc12`, for which the TGI in experiment [1], in [2], in experiment [3], in [4], in experiment [5] and in experiment [6] was more than 100 µM throughout. In addition, the TGI in experiment [7], in [10], in [8] and in [9] was more than 100 µM throughout.
As for `CSc1nc(NC2OC(CO)C(O)C(O)C2O)c(N)c(=O)n1C` (stereo unspecified), the TGI in experiment [1], in [2], in experiment [4], in experiment [5], in experiment [6] and in [7] was more than 100 µM each time. Also, the TGI in experiment [10], in experiment [8] and in experiment [9] was more than 100 µM in each case.
As to `COc1ccc(C2C(Cl)C(=O)N2NC(=O)c2ccc(NC(C)=O)cc2)cc1OC` (stereo unspecified), the TGI in [2], in experiment [5], in experiment [6], in experiment [7], in experiment [10] and in experiment [9] was more than 100 µM in each case.
Consider `NC(=O)OCc1c(O)c2c(c(O)c1COC(N)=O)C(=O)C=CC2=O`, for which the TGI in [1], in [2], in experiment [5], in experiment [7], in experiment [10] and in experiment [8] was more than 100 µM in each case.
